pIC50: −log10 of the molar value.
Experiments:
[1] = target: T1, p7NC protein in intact HIV-1MN virions (HIV-1 M:B_MN, UniProt P05888); assay: p7NC immunoblot of treated intact virions, non-reducing SDS-PAGE; assay type: biochemical; conditions: for detectable virion p7NC / cross-linkage of virion NC proteins: HIV-1MN, FIG. 2(A)
T1 construct: cut from Gag polyprotein Pr55gag (also Gag-Pol Pr160)
Method: Fluorescence measurements of the Trp^37 residue in the C-terminal zinc finger of the recombinant HIV-1 p7NC protein were performed as previously described (Rice et al., Science 270:1194, 1995). The p7NC protein was prepared at 20 μg/ml in 10 mM sodium phosphate buffer (pH 7.0), treated with 25 μM of each compound, then after indicated time intervals the samples were diluted 1/10 in 10 mM sodium phosphate buffer (pH 7.0) and the fluorescence intensity measured. The excitation and emission wavelengths utilized with the Shimadzu RF5000 spectrofluorimeter were 280 nm and 351 nm, respectively. In an alternate assay, the zinc-selective fluorescent probe N-(6-methoxy-8quinolyl-)-p-toluenesulfonamide (TSQ, Molecular Probes, Eugene, Oreg.) originally described by Fredrickson (J. Neurosci. Meth. 20:91, 1987) was utilized to measure zinc released from the p7NC protein in vitro. Briefly, 2 μM recombinant HIV-1 p7NC protein in 10 mM sodium phosphate buffer, pH 7.0, 10% glycerol was treated with 10 μM 624151 ([…] total volume in 96-well plates), and the time-dependent increase in fluorescence was measured on a Labsystems Fluoroskan II (360 nm excitation filter and 460 nm emission filter) over a period of 2 hours. Induction of alterations of p7NC proteins within intact virions involved treatment of HIV-1MN for 1 hour at 37° C. with 25 μM test compound. Samples were centrifuged 1 hour at 4° C. under 18,000×g to pellet the virus from the drug. Virus pellets were resolved by non-reducing SDS-PAGE and analyzed by immunoblot using monospecific rabbit antisera to the purified p7NC protein.
In order to determine if the 624151 entered intact HIV-1 virions and affected the p7NC protein zinc fingers, purified HIV-1MN was treated with increasing concentrations of the compound and the viral proteins were then separated by non-reducing SDS-PAGE and immunoblotted with monospecific antisera to the p7NC protein (FIG. 2(A)). […] Thus, 624151 effectively entered and inactivated cell-free HIV-1 virions by chemically attacking the p7NC CCHC zinc fingers and promoting cross-linkage among the p7NC proteins.

HIV-1 protease = target: T2, HIV-1 protease (Human immunodeficiency virus type 1 group M subtype B, UniProt P04585); assay: HIV-1 protease activity, reversed phase HPLC assay; assay type: biochemical
T2 construct: the purified HIV-1 protease and integrase enzymes

HIV-1 integrase = target: T3, HIV-1 integrase (Human immunodeficiency virus type 1 group M subtype B, UniProt P04585); assay: HIV-1 integrase activity; assay type: biochemical
T3 construct: the purified HIV-1 protease and integrase enzymes

U1 cells = assay: U1 cell viability (XTT) and cell number; assay type: cell-based; conditions: TNF-α stimulated U1 cells, 48 hours, FIG. 3(A)
Method: U1 cells latently infected with two copies of HIV-1 proviral DNA per cell (Clous et al., J. Immunol. 142: 431-438, (1989)) were treated with 5 ng/ml tumor necrosis factor-α(TNF-α) for 24 hours to stimulate production of HIV-1 virions, after which various concentrations of 624151 were added to the cultures and incubated for an additional 48 hours. Cultures were analyzed for cell viability by the XTT reduction assay and cells were counted and scored for viability by trypan blue exclusion. Cells pellets were lysed (0.5% Triton X-100, 300 mM NaCl, 50 mM Tris-HCl, pH 7.6, 10 μg/ml each of Leupeptin and aprotinin (Boehringer Mannheim), 1.8 mg/ml iodoacetamide (Sigma Chemical Co., St. Louis, Mo.) and 1.0 mg/ml the protease inhibitor Pefabloc SC (Boehringer Mannheim at 4° C. for 15 min. and then quantitated for viral p24 content by ELISA. Cell-free supernatant samples were collected and analyzed for virus content by p24 ELISA, and infectivity in cultures of 174xCEM cells. Briefly, serial 1/2 dilutions of the supernatant were placed with 5×10^3 174xCEM cells and cultured for 7 days, cell supernatants were analyzed for viral p24 content, and the number of infectious units/ml calculated. In addition, cell free supernatants were centrifuged at 17,000×g for 1 hour at 4° C. to collect virion pellets. […]

[2] = non-reducing SDS-PAGE, in words

`O=S1(=O)C[C@H](O)[C@H](O)CS1` (relative stereo) [NSC 624151, cis-1,1-dioxo[1,2]dithiane-4,5-diol] was tested, and the “detectable virion p7NC / cross-linkage of virion NC proteins” value [1, 2] was “enter intact virions and cause disulfide cross-linkage between virion NC proteins”, the “detectable virion p7NC / cross-linkage of virion NC proteins” value ([1]; non-reducing SDS-PAGE, in words, listed as 624151) was “decreases in the amounts of detectable virion p7NC” and the “interactions with other viral proteins” value [1, 2] was “no interactions with other proteins was observed”. The “virion p7NC profile under reducing conditions” value ([1]; reducing conditions (not shown)) was “no alterations in the virion p7NC profile were observed”, the “inhibition of HIV-1 protease” value (HIV-1 protease; in words) was “not inhibited” and the pIC50 (HIV-1 protease; read-out: Protease Activity ID50) was less than 4.00. For the same compound, the “inhibition of HIV-1 integrase” value (HIV-1 integrase; in words) was “not inhibited”, the pIC50 (HIV-1 integrase; read-out: Integrase ID50) was less than 4.00 and the “cell viability (XTT) or cell number” value (U1 cells) was “did not significantly reduce cell viability (XTT) or cell number”.
